Laboratory results reported in US20090123501A1, “INHIBITION OF THE SH2-DOMAIN CONTAINING PROTEIN TYR-PHOSPHATASE, SHP-1, TO ENHANCE VACCINES” (Baylor College of Medicine, priority 2007, published 2009).

How the values were obtained:
endogenous SHP-1 protein = experiment: Knock-down of endogenous SHP-1 protein in D2SC/1 cells, western blot with densitometry; format: cell-based, murine; details: D2SC/1 cells, 40,000 viral particles/cell
Procedure: The high titer adenoviral preparation of SHP-1 specific Ad-shRNA#1149 (referred to from this point on as Ad5-SHP-1-shRNA), produced in the Viral Vector Core Laboratory at Baylor College of Medicine, was tested for its ability to knock-down endogenous SHP-1 protein in D2SC/1 cells, a murine dendritic-like cell line. […] A titration of Ad5-SHP-1 shRNA viral particles was performed and SHP-1 protein expression was determined by western blot (FIG. 3). […] This dose was chosen for subsequent studies using mouse bone marrow derived dendritic cells (BMDCs).
FIG. 3 describes the knock-down of endogenous SHP-1 using high titer Ad5-SHP-1 shRNA. SHP-1 protein expression was measured in D2SC/1 cells following infection with Ad5-SHP-1 at varying doses as shown. Protein levels were analyzed by western blot with a SHP-1 specific antibody. As controls, SHP-1 expression is shown for uninfected cells and those infected with the Ad5-scrambled shRNA. The blot was also probed with a calnexin specific antibody as a loading control. Densitometry analysis of the western is shown below as a percentage of SHP-1 expression level relative to cells infected with Ad5-scrambled shRNA.

D2SC/1 cells = experiment: Cell death of D2SC/1 cells after adenoviral infection; format: cell-based, murine; details: D2SC/1 cells, 40,000 viral particles/cell
TRAMP C2 tumors = experiment: DC vaccination of mice bearing ectopic TRAMP C2 tumors; format: in vivo, C57BL/6 mice; details: by viral transduction, pooled across all peptide treatments, vs untreated mice
Procedure: BMDCs were prepared as described above, transduced with either Ad5-SHP-1-shRNA or the control Ad5-scrambled-shRNA at 40,000 viral particles/cell, and pulsed with one of the six peptides listed in Table 1 (OVA, an irrelevant epitope to TRAMP 2 tumors, served as a negative control peptide) or a lysate of TRAMP C2 cells as a positive control antigen. 6-8 week C57BL/6 mice, bearing TRAMP C2 tumors (7×10^6 cells injected s.c. on the dorsal flank three days prior to vaccination), were given a single i.p. vaccination with 2×10^6 treated DCs or left untreated. Tumors were measured (length and width using calipers) every 2-4 days until termination of the study and tumor volume was estimated using the formula: Tumor volume (mm3)=x^2y×0.5236, where x is the smaller tumor dimension, and y is the larger tumor dimension. A-G) TRAMP tumor growth curves for vaccines loaded with the indicated peptides. Error bars represent the standard error of the mean of 5 mice vaccinated in each treatment. […] H-I) ANOVA analysis of peptide function and SHP-1 function. Data represent the averages 10 mice per peptide treatment and 5 mice in the no treatment control group for H) and 35 mice per viral transduction treatment and 5 mice in the no treatment control group for I). The green diamonds represent the mean and 95% confidence interval for each group from the ANOVA. The black line is the mean of means for the study and red symbols indicate significant differences (p<0.05 by Tukey-Kramer HSD multiple comparisons test).
To determine if there was a significant difference between the various peptides used in these DC vaccinations, mice were pooled across viral treatments (Ad5-SHP-1 shRNA or Ad5-scrambled-shRNA) employing the same peptide. An ANOVA for differences in mean tumor volume at day 48 post-vaccination (the time at which the majority of the vaccinated tumor growth curves change slope) and Tukey-Kramer HSD multiple comparisons test.
Next experiments were conducted to determine if vaccines transduced with Ad5-SHP-1-shRNA inhibited tumor growth compared to transduction with Ad5-scrambled-shRNA or no vaccine treatment, irrespective of what peptide was used in the vaccine.

B16 tumors = experiment: DC vaccination of mice bearing ectopic B16 melanoma tumors; format: in vivo, C57BL/6 mice
Procedure: The B16 melanoma, which is both aggressive and poorly immunogenic, expresses tyrosinase related protein-2 (Trp-2) of which peptide, […] (SEQ ID NO:13), is recognized by CD8^+ T cells in the context of H-2K^b. B16 represents a much more difficult tumor to treat than TRAMP and is considered the “gold standard” for ectopic tumor models in the C57BL/6 background. BMDCs were prepared as described above, pulsed with the Trp-2 and then transduced with either Ad5-SHP-1 shRNA or the control Ad5-scrambled-shRNA virus at 40,000 viral particles/cell. 6-8 week C57BL/6 mice, bearing B16 tumors (5×10^5 cells injected s.c. on the dorsal flank three days prior to vaccination), were given a single i.p. vaccination with 2×10^6 treated DCs or left untreated. Tumors were measured every 2-4 days until termination of the experiment and tumor volume was calculated as described above. […] To determine if this difference was statistically significant, ANOVA and Tukey-Kramer HSD multiple comparisons test were performed.
BMDCs were prepared as described above, pulsed with the Trp-2 and then transduced with either Ad5-SHP-1 shRNA or the control Ad5-scrambled-shRNA virus at 40,000 viral particles/cell. […] Tumors were measured every 2-4 days until termination of the experiment and tumor volume was calculated as described above. […]

## CACCGGAGCATGACACAGCAGAATACGAATATTCTGCTGTGTCATGCTCC (chemistry not given here) [Ad5-SHP-1-shRNA]
Endogenous SHP-1 protein
  decrease in endogenous SHP-1 protein: 95%
D2SC/1 cells
  cell death: minimal cell death
TRAMP C2 tumors
  TRAMP C2 tumor volume (ANOVA): significantly lower tumor volumes
B16 tumors; Trp-2 pulsed DCs, 40,000 viral particles/cell, single i.p. 2×10^6 DCs, beginning at day 18
  B16 mean tumor volume (growth curves): markedly smaller mean tumor volumes
B16 tumors; Trp-2 pulsed DCs, compared with either control group
  B16 mean tumor volume (ANOVA): significantly lower mean tumor volume
